Assay results taken from US12546776B2, “Modulation of protein degradation” (Orionis Biosciences, Inc., priority 2019, dated 2026).

Legend:
[1] = target: T1, CRBN (Homo sapiens, UniProt Q96SW2); assay: MAPPIT-like ligand competition assay for CRBN binding in HEK293T cells (trimethoprim-lenalidomide hybrid ligand, luciferase reporter); type: cell-based; conditions: competition for binding to CRBN
T1 construct: expressed in transfected cells; host or cells: HEK293T

[2] = target: T2, CRBN-ASS1 interaction (Homo sapiens, UniProt Q96SW2); assay: MAPPIT cell microarray screen of ORF library for ligand-induced CRBN neosubstrates; type: cell-based; conditions: HEK293T cells, CC-220 at 10 μM, fluorescence reporter read 48 hours later
T2 construct: expressed in transfected cells; host or cells: HEK293T

[3] = target: T2, CRBN-ASS1 interaction; assay: Co-immunoprecipitation of Flag-ASS1 and HA-CRBN in HEK293T cells; type: cell-based; conditions: 1 μM and 3 μM, 24 hours
Excerpt: FIGS. 3A-B Ligand-induced CRBN-ASS1 interaction in living cells—as assessed by co-immunoprecipitation analysis. In this study we examined the ability of Flag-tagged ASS1 (or Flag tagged gp130-ASS1 fusion protein, as identified in the assay described in FIG. 1) and HA-tagged CRBN to interact in living cells upon transfection and expression of each construct in HEK293T cells—in the presence or absence of the CRBN IMiD ligand CC220. Ability of HA-tagged CRBN to interact in response to CC220 with the known CRBN neosubstrate IKZF3 was also examined (with IKZF3 expressed as a Flag-tagged IKZF3 fusion protein). […] Western analysis was performed with an anti-HA antibody to determine extent of immunoprecipitated CRBN in each sample (expected to vary in dependence of CC220 exposure) and an anti-Flag antibody to determine extent of immunoprecipitated Flag-ASS1, Flag-gp130-ASS1 or Flag-IKZF3 in each sample (which would be expected to be the same). […]
In this study we assessed via co-immunoprecipitation of protein complexes the ability of the CRBN ligand CC220 to induce an interaction with ASS1 when expressed in HEK293 cells. […] FLAG-tagged ASS1 was detected using an anti-FLAG Ab (SIGMA) respectively (FIG. 3A, lower panel). […]

[4] = target: ASS1 (Homo sapiens, UniProt P00966+Q96SW2); assay: ASS1 degradation by Western blot in HEK293T cells co-transfected with FLAG-ASS1 and HA-CRBN; type: cell-based; conditions: 0.3-30 μM, 24 hours
Experimental: FIG. 4 Ligand-induced recruitment of ASS1 to CRBN is associated with degradation of ASS1 in living cells. In this study we examined whether ligand-induced recruitment of ASS1 to CRBN could lead to subsequent ASS1 degradation (as triggered by interaction with the CRBN E3 ligase). HEK293 cells were co-transfected with cDNA constructs encoding Flag-tagged ASS1 and HA-tagged CRBN and exposed to increasing concentration of CC220 for 24 hours. Samples were generated for Western blot analysis to determine steady state levels of ASS1 across the different experimental conditions, assessed using and anti-Flag antibody. As shown, loss of ASS1 expression (but not actin control protein expression) was observed specifically in response to CC220 exposure, and in a dose-dependent manner.
In this study we examined whether CC220 CRBN-ligand-induced recruitment of ASS1 to CRBN could lead to subsequent ASS1 degradation (as triggered by interaction with the CRBN E3 ligase). For this analysis, cells were transfected with FLAG-tagged ASS1 and HA-tagged CRBN encoding constructs, and any change in steady state levels of ASS1 in response to incubation of cells with CC220 for a specified time was assessed by Western blot analysis. […] Next, cells were lysed and a fraction of the lysate was analyzed via SDS-PAGE and Western Blot analysis with an anti-FLAG antibody (Sigma). […]

[5] = patients with AL amyloidosis during lenalidomide treatment; cited from earlier work

Row | ASS1 steady state levels (Western blot, in words) [4] | SMILES | inhibition of hybrid-ligand induced luciferase reporter activation (in words) [1] | ligand-induced ASS1 interaction with CRBN in cell microarray screen (in words) [2] | recruitment of ASS1 into CRBN complex by co-immunoprecipitation (in words) [3] | patients showing worsening of kidney function [5] [%] | patients with severe kidney dysfunction [5] [%]
1 | decrease in a dose responsive manner | O=C1CC[C@H](N2Cc3c(OCc4ccc(CN5CCOCC5)cc4)cccc3C2=O)C(=O)N1 [CC-220] | specifically inhibit hybrid-ligand induced luciferase reporter activation in a dose dependent manner | identified Argininosuccinate Synthase 1 (ASS1) as a novel CC220-induced CRBN neosubstrate | specifically induces the recruitment of ASS1 into a CRBN-CC220 complex | – | –
2 | – | Nc1cccc2c1CN(C1CCC(=O)NC1=O)C2=O (stereo not drawn) [LEN, lenalidomide] | – | – | – | 66 | 32
